Assay results from patent US20170216219A1, “THERAPEUTIC NANOPARTICLES FOR ACCUMULATION IN THE BRAIN” (UNIVERSITY OF GEORGIA RESEARCH FOUNDATION, INC., priority 2014, published 2017).

What was measured:
Assay type in all cases: cell-based, Human
[1] = test system: NSCs; assay: Antioxidative properties by Seahorse analyzer (OCR) in H2O2 treated NSCs; conditions: H2O2 10 μM, 1 μM with respect to CoQ10
Source text: Oxidative stress induced by the production of ROS including free radicals and peroxides is one of the major mechanisms, which leads to neuronal destruction and is closely related to apoptosis and necrosis in these cells during TBI. Mitochondria are well known to be a major source of ROS production. CoQ10 is endogenously synthesized in mammalian mitochondria, acts as both antioxidant and pro-oxidant, and is involved in shuttling electrons from complexes I or II and a number of other electron donors, including electron transfer factor, which moves electrons from fatty acid beta oxidation. CoQ10 is found in all cell and organelle membranes, where it can participate in redox shuttling. However, defects in CoQ10 biosynthesis can be found during TBI. […]
T-CoQ10-NPs, NT-CoQ10-NPs, and free CoQ10 were tested for their ability to reduce oxidative stress in NSCs. […] The cells were monitored for changes in oxygen consumption rate (OCR) with respect to time. A basal reading was acquired for 45 min and then H2O2(10 μM) was injected. The OCR was monitored for 90 min and T-CoQ10-NPs (1 μM with respect to CoQ10), NT-CoQ10-NPs (1 μM with respect to CoQ10), and free CoQ10 (1 μM) were injected. The OCR levels were then further measured for 4.5 h. As a control, cells were also monitored with no treatment or only treatment of H2O2(10 μM).

[2] = test system: NSCs; assay: Cytotoxicity by MTT assay against NSCs; conditions: concentrations used in the cytokine studies
Experimental: (§1) Human induced pluripotent stem cell-derived neural stem cells (HIP™ hNSC BC1, GlobalStem®, Rockville, Md.) used for the in vitro portion of this study. NSCs were maintained on matrigel-coated tissue culture dishes in neural stem cell media composed of neural basal medium, 2% B-27 supplement, 1% non-essential amino acids, 2 mM L-alanine/L-glutamine, 1% penicillin/streptomycin, and 20 ng/mL bFGF. The media was changed every other day. When NSCs reached confluence (approximately every 4 to 5 days), cells were enzymatically passaged using Accutase and removed from the dish using a cell scrapper. Cells were split at a 1:4 ratio. To prepare NSCs for MTT and ROS Reduction assays, NSCs were plated in matrigel-coated 96-well dishes at a ratio of 40,000 cells per well in neural stem cell media.
The cytotoxic behavior of all the NPs was evaluated by using the MTT assay against NSCs. Cells (40,000 cells/well) were seeded on a 96-well plate in 100 μL of NSC basal complete medium and incubated for 24 h. The cells were treated with NPs at varying concentrations (with respect to prednisone and CoQ10) and incubated at 37° C. […] The medium was removed, the cells were lysed with 100 μL of DMSO, and the absorbance of the purple formazan was recorded at 550 nm using a Bio-Tek Synergy HT microplate reader. Each well was performed in triplicate and a background reading was recorded at 800 nm.

[3] = test system: LPS stimulated NSCs; assay: Anti-inflammatory properties in LPS stimulated NSCs (cytokine ELISA); conditions: LPS 100 ng/mL 36 h, 1 μM
Source text: Immunosuppressant corticoid based rugs such as prednisone can exert biphasic effects on neuronal mitochondrial dynamics. A low level of prednisone and chronic high levels can attenuate various aspects of mitochondrial function. […] Inflammatory cytokines like TNF-α and IL-6 are closely linked to TBI and these cytokines have a negative effect on damaged tissue. Therefore limiting inflammatory cytokine activity is of major benefit in reducing TBI tissue damage. We used lipopolysaccharide (LPS) to stimulate TNF-α and IL-6 production in NSCs to understand the anti-inflammatory effects of prednisone-NPs and CoQ10-NPs in an in vitro model (FIG. 6C). […] The T and NT NPs containing prednisone reduced the levels of IL-6 in the LPS stimulated NSCs. The addition of T or NT-CoQ10-NPs to prednisone NPs increased the efficiency of IL-6 reduction. […] IL-10 is primarily an anti-inflammatory cytokine with potent inhibitory effects on several pro-inflammatory mediators. […] IL-12 has immune-inflammatory responses in the brain; however the consequences of local production of IL-12 on spontaneous immune responses are unknown. […] The exact mechanism why only mitochondria targeted therapy produces IL-12 from the NSCs warrants further investigation.
as §1, with “To prepare NSCs for MTT and ROS Reduction assays, NSCs were plated in matrigel-coated 96-well dishes at a ratio of 40,000 cells per well in neural stem cell media.” left out
NSCs were plated on each well of a 12-well plate at a density of […] per well and allowed to grow overnight (NSC basal media in 200 μL). […] The absorbance was recorded at 450 nm using a BioTek Synergy HT well plate reader.

Row | SMILES | effect on H2O2 mediated oxidative stress (OCR) [1] | cytotoxic effects (MTT) [2] | IL-10 [3] | TNF-α secretion induced by LPS [3]
1 | COC1=C(OC)C(=O)C(C/C=C(\C)CC/C=C(\C)CC/C=C(\C)CC/C=C(\C)CC/C=C(\C)CC/C=C(\C)CC/C=C(\C)CC/C=C(\C)CC/C=C(\C)CCC=C(C)C)=C(C)C1=O [CoQ10, coenzyme Q10] | less efficiency in oxidative stress reduction | did not show any cytotoxic effects | elevated | –
2 | C[C@]12C=CC(=O)C=C1CC[C@@H]1[C@@H]2C(=O)C[C@@]2(C)[C@H]1CC[C@]2(O)C(=O)CO [prednisone] | – | did not show any cytotoxic effects | elevated | significantly reduced
